The structures appear in SMILES notation.

By IC50 is commonly meant the concentration at which inhibition is half-maximal.

For the assay, the system named is H358 (KRAS G12C mutant) cells. The experiment in a line: Tumor cell proliferation inhibition experiment (Cell Titer-Glo luminescent cell viability assay). Conditions: Homo sapiens, NCI-H358, 72 h, read-out: NCI-H538 IC50(nm).
Method: H358 (KRAS G12C mutant) cells were digested, centrifuged, and resuspended. Cell density was determined using a Scepter automated cell counter. The cells were diluted to a solution containing 44,000 cells per milliliter. The adjusted cell solution was added to 90 µL per well in a 96-well culture plate. The 96-well plate was placed in a 37°C, 5% CO2 incubator. After culturing the cells for 24 hours, different concentrations of the test compound were added. The cells were then cultured with the compound for 72 hours in the presence of 10% fetal bovine serum. The ATP content was measured using the Cell Titer-Glo luminescent cell viability assay kit (see manufacturer's instructions for details) to assess cell growth inhibition. In short, 30 µL of Cell Titer-Glo reagent was added to each well, and the plate was shaken for 10 minutes to induce cell lysis. The fluorescence signal was detected and recorded using a Fluoroskan Ascent FL (Thermo). The maximum signal value was obtained from cells treated with dimethyl sulfoxide for 72 hours. Minimum signal value was obtained from a single culture medium (zero cell count). Inhibition rate % = (maximum signal value - minimum signal value) / (maximum signal value - minimum signal value × 100%). Data was processed using GraphPadprism 5 software. IC50 values were calculated by fitting an S-shaped dose-response curve.
Consider `C=CC(=O)N1CCN(c2nc(OC[C@@]34CCCN3C[C@H](F)C4)nc3c2CS(=O)(=O)[C@H](c2c(F)c(N)cc(C)c2C(F)(F)F)C3)C[C@@H]1CC#N` [Compound 3A, 2-((2S)-1-Acryloyl-4-((7S)-7-(3-amino-2-fluoro-5-methyl-6-(trifluoromethyl)phenyl)-2-(((2R,7AS)-2-fluorotetrahydro-1H-pyrrolazin-7a(5H)-yl)methoxy)-6,6-dioxo-7,8-di hydro-5H-thiaran[4,3-d]pyrimidin-4-yl)pyrazin-2-yl)acetonitrile], for which the IC50 was below 10 nM.
In the case of `C=CC(=O)N1CCN(c2nc(OC[C@@]34CCCN3C[C@H](F)C4)nc3c2CS(=O)(=O)[C@@H](c2c(F)c(N)cc(C)c2C(F)(F)F)C3)C[C@@H]1CC#N` [Compound 3B, 2-((2S)-1-Acryloyl-4-((7R)-7-(3-amino-2-fluoro-5-methyl-6-(trifluoromethyl)phenyl) -2-(((2R,7AS)-2-fluorotetrahydro-1H-pyrrolazin-7a(5H)-yl)methoxy)-6,6-dioxo-7,8-dihydro-5H-thiaran[4,3-d]pyrimidin-4-yl)pyrazin-2-yl)acetonitrile], the IC50 was below 10 nM.
As for `C=C(F)C(=O)N1CCN(c2nc(OC[C@@]34CCCN3C[C@H](F)C4)nc3c2CS(=O)(=O)C(c2c(F)c(N)cc(C)c2C(F)(F)F)C3)C[C@@H]1CC#N` (stereo partly drawn) [Compound 4, 2-((2S)-4-(7-(3-amino-2-fluoro-5-methyl-6-(trifluoromethyl)phenyl)-2-(((2R,7AS)-2-fluorotetrahydro-1H-pyrrolazin-7a(5H)-yl)methoxy)-6,6-dioxo-7,8-dihydro-5H-thiaran[4,3-d]pyrimidin-4-yl)-1-(2-fluoroacryloyl)pyrazin-2-yl)acetonitrile], the IC50 was below 10 nM.
With `C=C(F)C(=O)N1CCN(c2nc(OC[C@@]34CCCN3C[C@H](F)C4)nc3c2CS(=O)(=O)[C@H](c2c(F)c(N)cc(C)c2C(F)(F)F)C3)C[C@@H]1CC#N` [Compound 4A, 2-((2S)-4-((7S)-7-(3-amino-2-fluoro-5-methyl-6-(trifluoromethyl)phenyl)-2-(((2R, 7A S)-2-fluorotetrahydro-1H-pyrrolazin-7a(5H)-yl)methoxy)-6,6-dioxo-7,8-dihydro-5H-thiaran[4,3-d]pyrimidin-4-yl)-1-(2-fluoroacryloyl)pyrazin-2-yl)acetonitrile] the figure was below 10 nM; with `C=C(F)C(=O)N1CCN(c2nc(OC[C@@]34CCCN3C[C@H](F)C4)nc3c2CS(=O)(=O)[C@@H](c2c(F)c(N)cc(C)c2C(F)(F)F)C3)C[C@@H]1CC#N` [Compound 4B, 2-((2S)-4-((7R)-7-(3-amino-2-fluoro-5-methyl-6-(trifluoromethyl)phenyl)-2-(((2R, 7A S)-2-fluorotetrahydro-1H-pyrrolazin-7a(5H)-yl)methoxy)-6,6-dioxo-7,8-dihydro-5H-thiaran[4,3-d]pyrimidin-4-yl)-1-(2-fluoroacryloyl)pyrazin-2-yl)acetonitrile], below 10 nM; with `C=CC(=O)N1CCN(c2nc(OC[C@@]34CCCN3C[C@H](F)C4)nc3c2CS(=O)(=O)C(c2nc(N)cc(C)c2C(F)(F)F)C3)[C@@H](C)C1` (stereo partly drawn) [Compound 5, 1-((3S)-4-(7-(6-amino-4-methyl-3-(trifluoromethyl)pyridin-2-yl)-2-(((2R,7AS)-2-fluorotetrahydro-1H-pyrrolazin-7a(5H)-yl)methoxy)-6,6-dioxo-7,8-dihydro-5H-thiaran[4,3-d]pyrimidin-4-yl)-3-methylpyrazin-1-yl)prop-2-en-1-one], below 10 nM.
Under `C=CC(=O)N1CCN(c2nc(OC[C@@]34CCCN3C[C@H](F)C4)nc3c2CS(=O)(=O)[C@H](c2nc(N)cc(C)c2C(F)(F)F)C3)[C@@H](C)C1` [Compound 5A, 1-((3S)-4-((7S)-7-(6-amino-4-methyl-3-(trifluoromethyl)pyridin-2-yl)-2-(((2R,7AS)-2-fluorotetrahydro-1H-pyrrolazin-7a(5H)-yl)methoxy)-6,6-dioxo-7,8-dihydro-5H-thiaran[4,3-d]pyrimidin-4-yl)-3-methylpyrazin-1-yl)prop-2-en-1-one] stands below 10 nM; under `C=CC(=O)N1CCN(c2nc(OC[C@@]34CCCN3C[C@H](F)C4)nc3c2CS(=O)(=O)[C@@H](c2nc(N)cc(C)c2C(F)(F)F)C3)[C@@H](C)C1` [Compound 5B, 1-((3S)-4-((7R)-7-(6-amino-4-methyl-3-(trifluoromethyl)pyridin-2-yl)-2-(((2R,7AS)-2-fluorotetrahydro-1H-pyrrolazin-7a(5H)-yl)methoxy)-6,6-dioxo-7,8-dihydro-5H-thiaran[4,3-d]pyrimidin-4-yl)-3-methylpyrazin-1-yl)prop-2-en-1-one], below 10 nM; under `C=C(F)C(=O)N1CCN(c2nc(OC[C@@]34CCCN3C[C@H](F)C4)nc3c2CS(=O)(=O)C(c2nc(N)cc(C)c2C(F)(F)F)C3)[C@@H](C)C1` (stereo partly drawn) [Compound 6, 1-((3S)-4-(7-(6-amino-4-methyl-3-(trifluoromethyl)pyridin-2-yl)-2-(((2R,7AS)-2-fluorotetrahydro-1H-pyrrolazin-7a(5H)-yl)methoxy)-6,6-dioxo-7,8-dihydro-5H-thiaran[4,3-d]pyrimidin-4-yl)-3-methylpyrazin-1-yl)-2-fluoroprop-2-en-1-one], below 10 nM.
Under `C=C(F)C(=O)N1CCN(c2nc(OC[C@@]34CCCN3C[C@H](F)C4)nc3c2CS(=O)(=O)[C@H](c2nc(N)cc(C)c2C(F)(F)F)C3)[C@@H](C)C1` [Compound 6A, 1-((3S)-4-((7S)-7-(6-amino-4-methyl-3-(trifluoromethyl)pyridin-2-yl)-2-(((2R,7AS)-2-fluorotetrahydro-1H-pyrrolazin-7a(5H)-yl)methoxy)-6,6-dioxo-7,8-dihydro-5H-thiaran[4,3-d]pyrimidin-4-yl)-3-methylpyrazin-1-yl)-2-fluoroprop-2-en-1-one] stands below 10 nM; under `C=C(F)C(=O)N1CCN(c2nc(OC[C@@]34CCCN3C[C@H](F)C4)nc3c2CS(=O)(=O)[C@@H](c2nc(N)cc(C)c2C(F)(F)F)C3)[C@@H](C)C1` [Compound 6B, 1-((3S)-4-((7R)-7-(6-amino-4-methyl-3-(trifluoromethyl)pyridin-2-yl)-2-(((2R,7AS)-2-fluorotetrahydro-1H-pyrrolazin-7a(5H)-yl)methoxy)-6,6-dioxo-7,8-dihydro-5H-thiaran[4,3-d]pyrimidin-4-yl)-3-methylpyrazin-1-yl)-2-fluoroprop-2-en-1-one], below 10 nM.
With `C=CC(=O)N1CCN(c2nc(OC[C@@]34CCCN3C[C@H](F)C4)nc3c2CS(=O)(=O)C(c2nc(N)cc(C)c2C(F)(F)F)C3)C[C@@H]1CC#N` (stereo partly drawn) [Compound 7, 2-((2S)-4-(7-(6-amino-4-methyl-3-(trifluoromethyl)pyridin-2-yl)-2-(((2R,7AS)-2-fluorotetrahydro-1H-pyrrolazin-7a(5H)-yl)methoxy)-6,6-dioxo-7,8-dihydro-5H-thiaran[4,3-d]pyrimidin-4-yl)-1-(acryloyl)pyrazin-2-yl)acetonitrile], the concentration for half-maximal inhibition (IC50) is below 10 nM.
On to `C=CC(=O)N1CCN(c2nc(OC[C@@]34CCCN3C[C@H](F)C4)nc3c2CS(=O)(=O)[C@H](c2nc(N)cc(C)c2C(F)(F)F)C3)C[C@@H]1CC#N` [Compound 7A, 2-((2S)-4-((7S)-7-(6-amino-4-methyl-3-(trifluoromethyl)pyridin-2-yl)-2-(((2R,7AS)-2-fluorotetrahydro-1H-pyrrolazin-7a(5H)-yl)methoxy)-6,6-dioxo-7,8-dihydro-5H-thiaran[4,3-d]pyrimidin-4-yl)-1-(acryloyl)pyrazin-2-yl)acetonitrile], for which the IC50 is below 10 nM.
Under `C=CC(=O)N1CCN(c2nc(OC[C@@]34CCCN3C[C@H](F)C4)nc3c2CS(=O)(=O)[C@@H](c2nc(N)cc(C)c2C(F)(F)F)C3)C[C@@H]1CC#N` [Compound 7B, 2-((2S)-4-((7R)-7-(6-amino-4-methyl-3-(trifluoromethyl)pyridin-2-yl)-2-(((2R,7AS)-2-fluorotetrahydro-1H-pyrrolazin-7a(5H)-yl)methoxy)-6,6-dioxo-7,8-dihydro-5H-thiaran[4,3-d]pyrimidin-4-yl)-1-(acryloyl)pyrazin-2-yl)acetonitrile] stands below 10 nM.
With `C=C(F)C(=O)N1CCN(c2nc(OC[C@@]34CCCN3C[C@H](F)C4)nc3c2CS(=O)(=O)C(c2nc(N)cc(C)c2C(F)(F)F)C3)C[C@@H]1CC#N` (stereo partly drawn) [Compound 8, 2-((2S)-4-(7-(6-amino-4-methyl-3-(trifluoromethyl)pyridin-2-yl)-2-(((2R,7AS)-2-fluorotetrahydro-1H-pyrrolazin-7a(5H)-yl)methoxy)-6,6-dioxo-7,8-dihydro-5H-thiaran[4,3-d]pyrimidin-4-yl)-1-(2-fluoroacryloyl)pyrazin-2-yl)acetonitrile], the IC50 is below 10 nM.
For the compound `C=C(F)C(=O)N1CCN(c2nc(OC[C@@]34CCCN3C[C@H](F)C4)nc3c2CS(=O)(=O)[C@H](c2nc(N)cc(C)c2C(F)(F)F)C3)C[C@@H]1CC#N` [Compound 8A, 2-((2S)-4-((7S)-7-(6-amino-4-methyl-3-(trifluoromethyl)pyridin-2-yl)-2-(((2R,7AS)-2-fluorotetrahydro-1H-pyrrolazin-7a(5H)-yl)methoxy)-6,6-dioxo-7,8-dihydro-5H-thiaran[4,3-d]pyrimidin-4-yl)-1-(2-fluoroacryloyl)pyrazin-2-yl)acetonitrile], the IC50 was below 10 nM.
With `C=C(F)C(=O)N1CCN(c2nc(OC[C@@]34CCCN3C[C@H](F)C4)nc3c2CS(=O)(=O)[C@@H](c2nc(N)cc(C)c2C(F)(F)F)C3)C[C@@H]1CC#N` [Compound 8B, 2-((2S)-4-((7R)-7-(6-amino-4-methyl-3-(trifluoromethyl)pyridin-2-yl)-2-(((2R,7AS)-2-fluorotetrahydro-1H-pyrrolazin-7a(5H)-yl)methoxy)-6,6-dioxo-7,8-dihydro-5H-thiaran[4,3-d]pyrimidin-4-yl)-1-(2-fluoroacryloyl)pyrazin-2-yl)acetonitrile], the IC50 is below 10 nM.

Values taken from patent publication EP4818179A1, “PREPARATION FOR AND USE OF PYRIMIDO-THIOPYRANDIONE INHIBITOR FOR KRAS G12C MUTANT PROTEIN” (Ya Therapeutics Inc, priority 2024, dated 2025).
